Measurements taken from patent publication US20160271248A1, “CXCR4 UP- AND DOWN-REGULATION FOR TREATMENT OF DISEASES OR DISORDERS” (priority 2013, published 2016).
Like-named read-outs stand apart in the source and are kept apart here.

How the values were obtained:
[1] = system: layer 2/3 pyramidal neurons in the prefrontal cortex; assay type: cell-based, rat
Rat cortical neurons = assay type: cell-based; conditions: for effect on CXCL12-induced increase of spine density: AMD3100 100 ng/ml 20 min or PTx 100 ng/ml 18 hrs before CXCL12 (20 nM, 3 hours)
Method: (§1) Rat cortical neurons were cultured in the presence of a glial feeder layer, using the bilaminar cell culture model. Due to the presence of glia this culture system largely preserves the in vivo mechanisms of neuronal growth and differentiation, but also allows for direct studies on neurons, which were separated from glia at the time of analysis. Selected experiments were performed using glia-free neuronal cultures, as noted, using previously described protocols (Sengupta et al., 2009, J. Neurosci. 29:2534-2544). Neurons were transfected at the time of plating by Nucleofection (Amaxa), or after 8 days in culture by lipofectamine (Invitrogen). All experiments were conducted at 21 DIV, unless otherwise noted. HDAC4 and control (scrambled) siRNA were obtained from Ambion (s170677 and 4390843), and FHC/scrambled shRNA from GenScript (custom order; shRNA vector also expressed GFP).
For in vitro experiments, neurons were cultured in the presence of glia for 21 days, then fixed and stained for MAP2 (Millipore, 1:1000; detected with Goat antirabbit Alexa 568, Invitrogen 1:250) and counterstained with phalloidin (Invitrogen, 25 μg/mL). For FHC shRNA experiments neurons were identified and analyzed using incorporated GFP expression. Images were acquired with a Zeiss LSM5 laser scanning confocal microscope, using a 63× objective. Dendritic spines were defined as phalloidin- or GFP-positive protrusions clearly connected to the dendrite by a thin shaft. For each neuron 3-4 segments totaling at least […] in length were added to measure spine density, and each neuron was represented as a single data point. Each experiment included 3-4 coverslips from each of 2 or more separate preparations. For in vivo experiments, dendritic spines were visualized using a Golgi stain kit, following instructions from the manufacturer (FD NeuroTechnologies). Brains were rapidly removed, rinsed in H2O, and incubated in the Golgi stain for 2 weeks. The tissue was then cryoprotected in sucrose at 4° C. for 7 days, and frozen in isopentane. Brains were sectioned by cryostat at a thickness of 180 μm, and mounted on gelatin-coated microscope slides. Sections were allowed to dry overnight, and a signal intensification step performed before dehydrating, clearing in xylene, and coversliping with Permount (Fisher Scientific). Spine analysis was performed using Neurolucida software equipped with a 100× objective (FIG. 7A). Pyramidal neurons in layer 2-3 of prefrontal cortex were identified and reconstructed in their entirety, and total spine density for each neuron was reported as a single data point. 3 neurons were analyzed from each brain, and 4-5 brains used for each experimental group.

[2] = system: layer II/III pyramidal neurons of the prefrontal cortex; assay: In vivo dendritic spine analysis (Golgi stain, Neurolucida); parameters: species or system rat
HOS cells = assay: Calcein assay (labile iron pool); assay type: cell-based, human; conditions: DFO 100 µM, six hours; empty vector HOS cells
Method: HOS cells transfected with either empty vector (EV), wild type FHC (WT-FHC) or FHC 222 mutant (Mut-FHC) were plated in 96-well plates at 20,000 cells per well. After 24 hours of serum starvation, vehicle or the iron chelator DFO ([…]) were added, respectively, to the untreated EV wells (Control) and to the positive control wells (DFO). Six hours later all cells were washed with PBS, and loaded with the iron-binding dye calcein (200 μg/mL) for 20 minutes. Cells were then washed again in PBS, and calcein fluorescence measured (excitation 485 nm, emission 535 nm), as a measure of the labile iron pool.
Human osteosarcoma cells expressing high levels of CXCR4 (HOS-X4) were transfected with either of these FHC plasmids and selected to generate stable cell lines. First, in order to confirm the differential effects of these proteins on iron sequestration, free intracellular iron levels were compared using the fluorescent probe calcein. Calcein is delivered as a calcein-AM ester, which passes across the plasma membrane into cells and is cleaved by cytosolic esterases to produce membrane-impermeable calcein. The fluorescence of this trapped calcein is quenched following chelation with labile iron, and therefore the degree of quenching is a commonly used estimation of free intracellular iron levels.

FHC [3] = assay: Neuronal FHC protein levels by Western blot in cultured cortical neurons; assay type: cell-based, rat; conditions: for FHC protein levels: neurons in the absence of glia, 0.5 to 30 ng/mL, vs vehicle
Method: as §1
(§2) Protease and phosphatases inhibitors were added to both buffers.
Rat cortical neurons were cultured in serum-free media in the presence of a glial feeder layer (Shimizu, et al., 2011, J. Vis. Exp. 57). This culture system largely preserves the in vivo environment, due to the presence of glia; however, it still enables direct investigation of neurons that can be separated by the glia before experiments. Selected studies were also performed in neurons grown in the absence of glia for the entire culture period, as indicated (Sengupta, et al., 2009, J. Neurosci. 29(8):2534-44). All experiments were conducted between 8-13 days in vitro (DIV).
Total protein extracts were obtained using standard protocols. […] The following antibodies were used: anti-FHC (3998, Cell Signaling Technology, 1:1,000) and anti-β-actin (A2066, Sigma-Aldrich, 1:5,000).

pCXCR4-Ser339 = assay: Multispectral imaging of pCXCR4 optical density within MAP2+ neurons, non-human primate; assay type: in vivo, rhesus macaque; conditions: morphine treated macaques; frontal cortex
CXCR4 = assay: Multispectral imaging of total CXCR4 optical density within MAP2+ neurons, non-human primate; assay type: in vivo, rhesus macaque; conditions: morphine treated macaques; frontal cortex
FHC [4] = assay: Multispectral imaging of FHC optical density within MAP2+ neurons, non-human primate; assay type: in vivo, rhesus macaque; conditions: morphine 3 then 5 mg/kg 3 times daily, 90-110 days; frontal cortex
HDAC4 = assay: Nuclear HDAC4 levels by immunocytochemistry and western blot; assay type: cell-based, rat; conditions: pure neuronal culture; CXCL12 20 nM, 30 min
Method: as §2
Neurons were fixed in 4% paraformaldehyde, and stained with MAP2 (Millipore, 1:1000) and HDAC4 (Epigentek, 1:150), detected with cy2- and cy3-conjugated secondary antibodies. Cell nuclei were visualized with Hoechst (Invitrogen, 1:2000), and images were acquired with a Zeiss LSM5 laser scanning confocal microscope (Imager.Z1m), mounting 10, 20, 40, and 63× objectives.

FHC [5] = assay: FHC transcript levels in neurons; assay type: cell-based, rat; conditions: neurons in the absence of glia
[6] = AMD3100 1 μg ICV, 6 hours, CXCL12 20 nM, 3 hours slice incubation
[7] = held at −70 mV, picrotoxin, AMD3100 ICV or CXCL12 20 nM 3 hrs

Compound: c1cc(CN2CCCNCCNCCCNCC2)ccc1CN1CCCNCCNCCCNCC1 [AMD3100, 1,1′-[1,4-phenylenebis (methylene)]bis[1,4,8,11-tetraazacyclotetradecane], reference compound]
- 20-80% rise time [1]: 0.31 ± 0.02 ms
- after hyperpolarization [1]: −12.8 ± 1.5 mV
- mEPSC amplitude [1]: 16.55±0.55 pA
- mEPSC frequency [1]: 2.27±0.33 Hz
- peak spike amplitude [1]: 72.6 ± 5.3 mV
- resting membrane potential [1]: −76.9 ± 2.3 mV
- spike half-width [1]: 1.3 ± 0.12 ms
- spike number generation in response to varying step currents [1]: no drug effect on spike number generation
- spike threshold [1]: −38.4 ± 3.0 mV
- input resistance [1, 6]: 138.3 ± 9.5 M′Ω
- sEPSC amplitude [1, 7]: 16.79±0.80 pA
- sEPSC frequency [1, 7]: 3.84±0.65 Hz
- effect on CXCL12-induced increase of spine density (Rat cortical neurons): blocked
- dendritic spine density ([2]; osmotic pump into left lateral ventricle, 0.75 μg/hour for 4 days): similarly able to decrease dendritic spine densities
- dendritic spine density ([2]; single 1 μg ICV injection, 3-week-old rats, 6 hours post-injection): significantly decreased spine densities

Compound: CC(=O)N(O)CCCCCNC(=O)CCC(=O)N(O)CCCCCNC(=O)CCC(=O)N(O)CCCCCN [DFO, desferrioxamine]
- calcein fluorescence (HOS cells): increased

Compound: CN1CC[C@]23c4c5ccc(O)c4O[C@H]2[C@@H](O)C=C[C@H]3[C@H]1C5 [morphine]
- FHC levels (FHC [3]; cultured rat cortical neurons, morphine 1 μm, 24 hours): significantly increases FHC levels
- neuronal pCXCR4 levels (pCXCR4-Ser339): significant reduction in pCXCR4 levels
- ability of morphine to regulate spines in FHC-deficient neurons (Rat cortical neurons; FHC-specific shRNA vs scrambled): blocked
- number of dendritic spines (Rat cortical neurons; morphine 1 μm, 24 hours, 21 days culture): significant decrease in the number of dendritic spines
- total neuronal CXCR4 levels (CXCR4): unchanged
- neuronal FHC (OD within MAP2+ neurons) (FHC [4]): significantly elevated

Compound: CXCL12: recombinant chemokine CXCL12 from Peprotech, endogenous CXCR4 ligand
- mEPSC amplitude [1]: 25.25±1.02 pA
- mEPSC frequency [1]: 1.43±0.25 Hz
- resting membrane potential [1]: −76.1 ± 2.3 mV
- sEPSC amplitude [1]: 25.32±0.43 pA
- sEPSC frequency [1]: 1.85±0.41 Hz
- 20-80% rise time [1, 6]: 0.29 ± 0.01 ms
- after hyperpolarization [1, 6]: −12.0 ± 0.9 mV
- input resistance [1, 6]: 121.8 ± 13.2 M′Ω
- peak spike amplitude [1, 6]: 74.0 ± 2.8 mV
- spike half-width [1, 6]: 1.2 ± 0.07 ms
- spike threshold [1, 6]: −42.9 ± 2.3 mV
- spike number generation in response to varying step currents ([1]; current clamp, AMD3100 ICV or CXCL12 ex vivo vs vehicle): no drug effect on spike number generation
- dendritic spine density (Rat cortical neurons; 21 days culture with glial feeder layer, CXCL12 20 nM, 3 hours): moderate but significant increase in spine density
- effects of CXCL12 on spine density in HDAC4-deficient neurons (Rat cortical neurons; HDAC4-specific siRNA, pure neuronal population): completely prevented
- dendritic spines (Rat cortical neurons; pure neuronal population, 21 days, 20 nM CXCL12, multiple time points): time-dependent increase in dendritic spines
- nuclear HDAC4 levels (HDAC4): increased nuclear HDAC4 levels

Compound: IL-1β: Recombinant IL-1β, proinflammatory cytokine, R&D Systems
- FHC protein levels (FHC [3]): significant increase of FHC protein levels
- FHC transcript levels (FHC [5]): did not affect levels of FHC mRNA

Compound: TNF-α
- FHC protein levels (FHC [3]): significant increase of FHC protein levels
- FHC transcript levels (FHC [5]): increased

Compound: pertussis toxin
- effect on CXCL12-induced increase of spine density (Rat cortical neurons): blocked
